Where a name gives a salt, the structure may show the parent alone.
Columns and labels:
[1] = test system: Mouse preadipocyte strain 3T3-L1; assay: Inhibition of differentiation as an indication of acetic acid uptake; assay type: cell-based; conditions: Mus musculus, 3T3-L1, 0.1 μM test substance, control (0.01% dimethylsulfoxide) = 100%, read-out: Rate of Uptake (%) of [2-14C] acetic acid
Method: As the basal medium, Dulbecco's modified Eagle's (DEM) medium (NISSUI PHARMACEUTICAL CO., LTD) was used. […] All culturing in the present Test Example was carried out in a CO2 incubator at 37° C. and 10% CO2 concentration.
The successively cultured 3T3-L1 cells were inoculated in a Biocoat Collagen I 96-well white/clear plate (Becton Dickinson and Co.) at a concentration of 4,900 cells/well, and were cultured in the basal medium containing added 10% (v/v) inactivated bovine fetal serum (FBS) for 10 days.
The medium was replaced with a differentiation-inducing medium in which inactivated FBS (final concentration: 5%), insulin (Sigma-Aldrich Japan K. K., final concentration: 10 μg/mL), isobutyl methyl xanthine (Aldrich K. K., final concentration: 0.5 mM) and dexamethazone (final concentration: 1 μM) were added so as to be at the final concentrations indicated in the parentheses. The cells were divided in the following 2 groups and were cultured for 4 days; 1) in the presence of 0.01% (v/v) dimethylsulfoxide, and 2) in the presence of 0.01% (v/v) dimethylsulfoxide in which was dissolved 1 mM of the test substance (final concentration of 0.1 μM). Then, the medium was further replaced with a maintenance medium in which inactivated […] and insulin were added to the base medium so as to be at final concentrations of 5% and 100 ng/mL, respectively, and the cells were cultured for 2 days.
The inhibitory activity of the test compound against cell differentiation was assayed by using uptake of [2-^14C] acetic acid into the cultured cells as an indicator. […] Then the cells were further incubated with the newly prepared medium for 1 hr. After washing the well with PBS (−), the cells were dried. To these wells, 100 μL/well of a scintillation cocktail (Hewlett-Packard Co., MICROSCINT-20 PACKARD) were added and their radioactivities were determined with a Packard TopCont microplate Scintillation Counter (Hewlett-Packard Co., PACKARD) and the uptake level of [2-^14C] acetic acid into the cultured cell was calculated.
On the basis of the calculated uptake level of [2-^14C] acetic acid into the cultured cells, the relative uptake level of [2-^14C] acetic acid in the group treated with the test compound was calculated against the uptake level of [2-^14C] acetic acid in the presence of 0.01% (v/v) dimethylsulfoxide solution described in 1) (100%).
Value=Uptake Level (cpm) of [2-^14C] Acetic Acid in the Presence of the Test Substance
Control=Uptake Level (cpm) of [2-^14C] Acetic Acid in the Control Group (0.01% dimethylsulfoxide)
Uptake Rate (%) of [2-^14C] Acetic Acid=100×[Value]/[Control]

leptin production = assay: Enhancing activity for leptin production in adipocytes (ELISA); assay type: cell-based, rat; conditions: Rattus norvegicus, Adipocyte, 24 h, leptin concentration as % of control group, read-out: Facilitating activity to produce leptin; for activity at 0.1 µM: 100 nm
Method: Hanks solution was used for collection of adipose tissue. The Hanks solution was prepared by filtration of a mixed solution (pH: 7.5) of 120 mM NaCl, 4.8 mM KCl, 0.74 mM MgSO4, 0.30 mM Na2HPO4, 0.40 mM KH2PO4, 20 mM HEPES, 0.05% (w/v) glucose, 2% (w/v) BSA (Sigma-Aldrich Japan K. K., Cat. No. A7888), 0.95 mM CaCl2, 4.17 mM NaHCO3 and 1% (v/v) penicillin-streptomycin liquid (GIBCO BRL, Cat. No. 15140-122). The adipocytes were cultured in Dulbecco's modified Eagle's medium (GIBCO BRL, Cat. No. 11995-040) mixed with DMEM/F-12 (GIBCO BRL, Cat. No. 11320-033) at a ratio of 1:1, and added 0.2% (v/v) Hanks solution, 0.2 μg/L sodium selenite (GIBCO BRL, Cat. No. 13012-018), 0.002% (v/v) ethanolamine, 25 mM HEPES and 1% (v/v) penicillin-streptomycin liquid (GIBCO BRL, Cat. No. 15140-122). As many as possible of the other reagents used were special grade. In this experiment, the cells were cultured in a CO2 incubator (37° C., 95% humidity, 5% CO2).
Male Wistar Imamichi rats of 6 weeks old were sacrificed by bleeding following decapitation, and adipose tissue was removed from the epididymis and sectioned after the vessels were removed in warmed Hanks solution at 37° C. and were weighed. One (1) mL of Hanks solution containing 10 mg collagenase (Wako Pure Chemical Industries, Ltd., 034-10533) was added to the adipose tissue prepared. The solution was transferred into a tube having a volume of 50 mL, and the cells were evenly dispersed by incubation under gentle shaking at 37° C., 90 rpm, for 50 min. Then 20 mL of Hanks solution were added and filtrated through Nylon-mesh with a mesh diameter of 200 μm for removal of undigested tissue pieces. The floating adipocytes were separated from sediments and substances located in the lower layer by centrifugation at 1,000 rpm for 1 min at room temperature. The sediment and 22 mL of the low layer were pulled out with a probe, and the floating adipocytes were recovered. This procedure was repeated twice with Hanks solution and for 4 times with the culture medium. After these procedures the adipocytes were suspended in the culture medium at a volume of 60 mL per 1 g of the adipose tissue weighed previously. 100 μL of the suspended solution were plated in each well of a 96-well microplate (ASAHI TECHNO GLASS Corp.) In the group treated with the test compound, 1 μL/well of DMSO solution containing the dissolved the test compound at concentrations of 200 μM, 20 μM, 2 μM and 0.2 μM (final concentrations of the test compound: 1 μM, 100 nM, 10 nM and 1 nM, respectively) was plated in each of the well. In the control group, 1 μL/well of DMSO (final concentration: 0.1% (v/v)) was plated in each well. The plate was placed stationary in a CO2 incubator for 1 hr or longer, and the contents in the solution were equilibrated at 37° C. After they were equilibrated, the solution in each well was stirred with a magnetic stirrer in a water bath and the suspended solution maintained at 37° C. was plated into each well of the plate at 100 μL/well. After incubation of the cells for 24 hr, the suspended solution of cells was filtrated through a filter for the microplate, MultiScreen (MILLOPORE, MDV-N65). The concentration of leptin in the filtrated solution was determined with ELISA methods by using a Rat Leptin Determination Kit-IBL (Immuno-Biological Laboratories Co., Ltd., Cat. No. 17195). The facilitating activity of the compound to produce leptin was calculated from the following equation based on the concentration of leptin determined.
Facilitating Activity of the Compound to Produce Leptin (%)=(A/B)×100
A: Concentration of Leptin in the Treated Group with the Test Compound.
B: Concentration of Leptin in the Control Group.

Rat white adipocytes = assay: Inhibition of the differentiation of adipocytes (Oil Red O); assay type: cell-based; conditions: 100 nM test compound, 5 days, Oil Red O ABS550, control = 100%, blank = 0%, Table 3; for activity at 0.1 µM: Rattus norvegicus, Adipocyte, 120 h, read-out: Rate of Differentiation (%)
Method: Rat white adipocytes contained in the white adipocyte culture kit purchased from HOKUDO were used. As the medium for proliferation and for differentiation-inducing, the medium contained in the white adipocyte culture kit purchased from HOKUDO was used. The cells in the present experiment were cultured in a CO2 incubator (37° C., 95% R.H., 5% CO2).
Immediately after arrival of the purchased cells, all medium for transportation was discarded and replaced with 5 ml of proliferation medium (/25 cm^2-flask) and the cells were cultured for one day. Then, a cell suspension was prepared with proliferation medium so as to be 83,000 cells/mL, and the cell suspension was plated into a type I 96-well collagen-coated microplate (SUMITOMO BAKELITE CO., ltd.) so as to be 5,000 cells/well (60 μL/well).
On the next day, all the proliferation medium was discarded and replaced with 147 μL/well of differentiation-inducing medium. Further, 1) in the group treated with the test compound, 3 μL/well of the solution, in which a test compound (100 μM) was dissolved in DMSO solution and diluted with differentiation-inducing medium by 20 times (final concentration of the test compound: 100 nM, final concentration of DMSO solution: 0.1% (v/v)), were added to the well where the cells were plated. 2) In the control group, 3 μL/well of DMSO solution that was diluted with differentiation-inducing medium by 20 times (final concentration of DMSO: 0.1% (v/v)) were added to the well where the cells were plated. Further, 3) in the blank group, 3 μL/well of DMSO solution that was diluted with differentiation-inducing medium by 20 times (final concentration: 0.1% (v/v)), was added to the blank well.
After culturing for 5 days, all differentiation-inducing medium was discarded and replaced with 60 μL of 10% (v/v) formaldehyde solution (for fixation) in each well and the cells were kept stationary for 20 min at room temperature. After this, the fixative solution was discarded and replaced with 60 μL of 0.2% (v/v) Triton X (Sigma-Aldrich Japan K. K.) solution in each well and kept stationary for 5 min at room temperature. Then all Triton X solution was discarded and replaced with 60 μL of 60% (v/v) isopropanol solution containing dissolved Oil Red O (Sigma-Aldrich Japan K. K.) so as to be 0.3%, which was adipose tissue staining solution, and the well was left stationary for 10 min at room temperature. After the adipose tissue staining solution was discarded, the well was washed twice with 60 JIL of 60% isopropanol solution. Then, 100 μL of the DMSO solution were added to each well and stirred for 5 min at room temperature, The absorbance was measured at 550 nm (ABS550) with a multi-plate reader (LabSystems), and the stained amount with Oil Red O was determined. The measured level at ABS550 in the control group was defined as 100%, while the level at ABS550 in the blank group was defined as 0%. The differentiation rate (%) of the adipocytes treated with the test compound was calculated.

| SMILES | activity at 0.1 µM [1] [%] | activity at 0.1 µM (Rat white adipocytes) [%] | also measured |
| --- | --- | --- | --- |
| Cc1cccc(C(C)C)c1NC(=O)c1cc([N+](=O)[O-])ccc1Cl [Example 19, N-(2-Isopropyl-6-methylphenyl)-(2-chloro-5-nitrophenyl)carboxamide] | 64.8 | – | – |
| O=C(O)c1ccc(NC(=O)c2cc([N+](=O)[O-])ccc2Cl)cc1 [Example 27, 4-[(2-Chloro-5-nitrophenyl)carbonylamino]benzoic Acid] | 66 | – | – |
| CCOC(=O)c1c[nH]nc1NC(=O)c1cc([N+](=O)[O-])ccc1Cl [Example 71, N-(4-Ethoxycarbonylpyrazol-3-yl)-(2-chloro-5-nitrophenyl)carboxamide] | 65.8 | – | – |
| CC(=O)Oc1c(C)c(C)c2c(c1C)C(=O)CC(C)(COc1ccc(NC(=O)c3cc([N+](=O)[O-])ccc3Cl)cc1)O2 (centres unmarked) [Example 91, N-[4-(6-Acetoxy-2,5,7,8-tetramethyl-4-oxochroman-2-ylmethoxy)phenyl]-(2-chloro-5-nitrophenyl)carboxamide] | 85.8 | – | activity at 1 µM (leptin production): 114%; activity at 0.1 µM (leptin production): 110% |
| CCCCCCCCCCCCCCc1sc(NC(=O)c2cc([N+](=O)[O-])ccc2Cl)nc1-c1ccccc1 [Example 109, N-(4-Phenyl-5-tetradecylthiazol-2-yl)-(2-chloro-5-nitrophenyl)carboxamide] | 64.6 | – | activity at 1 µM (leptin production): 112% |
| Cc1ccc(NS(=O)(=O)c2ccc(NC(=O)c3cc([N+](=O)[O-])ccc3Cl)cc2)cc1 [Example 144, N-[4-(4-Tolylaminosulfonyl)phenyl]-(2-chloro-5-nitrophenyl)carboxamide] | 82.2 | – | – |
| Nc1ccc(NC(=O)c2cc([N+](=O)[O-])ccc2Cl)cc1 [Example 180, N-(4-Aminophenyl)-(2-chloro-5-nitrophenyl)carboxamide] | – | – | Rate of Differentiation (%) (Rat white adipocytes): 59.1% |
| CCCCCCCCN(CCCCCCCC)c1ccc(-c2ccc(NC(=O)c3cc([N+](=O)[O-])ccc3Cl)cc2)cc1 [Example 185, N-[4-[4-(N,N-Dioctylamino)phenyl]phenyl]-(2-chloro-5-nitrophenyl)carboxamide Hydrochloride] | – | – | activity at 1 µM (leptin production): 123%; activity at 0.01 µM (leptin production; 10 nm): 122%; activity at 0.1 µM (leptin production): 132% |
| CCCCN(C)c1ccc(-c2ccc(NC(=O)c3cc([N+](=O)[O-])ccc3Cl)cc2)cc1 [Example 210, N-[4-[4-(N-Butyl-N-methylamino)phenyl]phenyl]-(2-chloro-5-nitrophenyl)carboxamide] | – | 47.6 | – |
| CCCN(C)c1ccc(-c2ccc(NC(=O)c3cc([N+](=O)[O-])ccc3Cl)cc2)cc1 [Example 213, N-[4-[4-(N-Methyl-N-propylamino)phenyl]phenyl]-(2-chloro-5-nitrophenyl)carboxamide] | – | 47.4 | – |
| CCCCCN(C)c1ccc(-c2ccc(NC(=O)c3cc([N+](=O)[O-])ccc3Cl)cc2)cc1 [Example 215, N-[4-[4-(N-Methyl-N-pentylamino)phenyl]phenyl]-(2-chloro-5-nitrophenyl)carboxamide] | – | 45.2 | – |
| O=C(Nc1ccc(C(O)(C(F)(F)F)C(F)(F)F)cc1)c1cc([N+](=O)[O-])ccc1Cl [Example 237, N-[4-(2,2,2-Trifluoro-1-hydroxy-1-trifluoromethylethyl)phenyl]-(2-chloro-5-nitrophenyl)carboxamide] | – | 46.9 | – |
